# Measurements: patent US6641849B1, “Composition for the prevention and/or treatment of circulatory disorders, comprising derivatives of L-carnitine and extracts of ginkgo biloba” (Sigma-Tau HealthScience S.p.A., priority 1999, dated 2003)
# Assays:
# [1] = tested on: pitressin-induced coronary spasm; test: Coronary spasm tests (pitressin); format: in vivo, rat; conditions: oral, three days before pitressin i.v.; Ginkgo biloba extract 100 mg/kg, carnitines or carnitine mixture 300 mg/kg; number of rats
# From the text: Enhancement of the activity of Ginkgo biloba when combined with carnitines was also found on evaluating the effects of the administration of these substances alone and in combination on pitressin-induced experimental coronary spasm.
# As is known, intravenous injection of 1 v/kg of pitressin in the rat causes characteristic electrocardiographic abnormalities which are most noticeable in lead II as affecting the T wave (asphyxial T wave) due to the diminished myocardial oxygenation related to the reduced coronary flow caused by the pitressin-induced vascular spasm.
# In these tests, before being injected with pitressin, the rats received oral administrations for three days consecutively of 100 mg/kg of Ginkgo biloba extracts, or of 300 mg/kg of carnitines alone or carnitine mixture, or of carnitine or carnitine mixture in combination with Ginkgo biloba.
# [2] = tested on: PAF-induced mortality; test: PAF-induced mortality tests; format: in vivo, albino mice; conditions: 300 mg/kg i.p. one hour before PAF 20 μg/kg i.v., mice
# Description: Platelet-activating factor (PAF) is an acetylated alkyl phosphoglyceride whose release in the body, under various stimuli, causes circulatory-type reactions related mainly to increased capillary permeability, with consequent extravasation of blood, increased platelet aggregation and thrombosis, reduced coronary flow, release of inflammatory factors, lysosomal enzymes and superoxides.
# When administered intravenously (20 μg/kg) to animals, PAF causes the death of the animals treated with it in a short space of time, i.e. approximately one hour, mainly as a result of cardiocirculatory collapse.
# A series of tests was conducted using the method described by Young (Young J. N., Prostaglandins 30:545, 1985) and by Myers (Myers H., Br. J. Pharmacol., 79:595, 1983) in order to assess whether Ginkgo biloba extracts (whose anti-PAF activity is known) protect animals injected with PAF against death and whether the carnitines (particularly propionyl L-carnitine, whose vascular regulatory activity is known) are capable of increasing the protective effect against PAF.
# The tests were conducted on albino mice with a mean weight of 25 g divided into various groups, the first of which served as control group and received intravenous injections of PAF at the dose of 20 μg/kg, while the other groups were administered intraperitoneal injections, one hour before to PAF administration, either of Ginkgo biloba extract, or of the various carnitines alone or in combination, or of Ginkgo biloba plus carnitines.
# [3] = tested on: PAF-induced oedema of the rat paw; test: PAF-induced inflammatory reaction tests (paw oedema, plethysmographic); format: in vivo; conditions: 300 mg/kg i.p. one hour before PAF 2 μg into rear paw, rats
# Description: In these experiments, a solution containing PAF was injected into the paws of rats according to the method described by Burstein (Burstein S. H., J. Pharmacol. Exptl. Ther., 251:531, 1989).
# As is known, PAF injected into the rat paw causes the release of numerous phlogogenic substances, including prostaglandins, which gives rise in a short time to the onset of marked oedema (Bonnet J., J. Agent Actions, 11:559, 1981).
# Using the method described by Goldenberg (Goldenberg M. M., Prostaglandins, 28:271, 1984) and Silva (Silva P. M. R., Inflammation, 10:393, 1986), a solution of PAF at an overall dose of 2 μg was injected into the rear paws of rats, and the ensuing oedematous reaction was evaluated with a plethysmographic method according to the technique described by Ferreira (Ferreira S. H., J. Pharmacol., 127:83, 1979).
# The tests were conducted in various groups of rats, one of which was a control group, while the others received intraperitoneal administrations, one hour before to PAF injection, of acetyl L-carnitine (300 mg/kg), or propionyl L-carnitine (300 mg/kg), or of a combination of L-carnitine (75 mg/kg), acetyl L-carnitine (75 mg/kg) and propionyl L-carnitine (75 mg/kg), or of a Ginkgo biloba extract (100 mg/kg), or of the Ginkgo biloba extract plus carnitines.
# [4] = tested on: cerebral ischaemia induced by endothelin-1 (MCA occlusion); test: Tests of protection against experimentally induced cerebral ischaemia (endothelin-1, MCA occlusion); format: in vivo; conditions: rat; i.v. 5 minutes after endothelin-1; propionyl/acetyl L-carnitine 50 mg/kg, Ginkgo biloba 10 mg/kg; checked after 3 days
# Description: Since a major responsible for causing damage following cerebral ischaemia is known to be the production of superoxides and free radicals (Litton S. A., Nature, 364:625, 1993), in these tests cerebral ischaemia was brought about by occluding the middle cerebral artery (MCA) of the rat according to the method described by Scharkey (Scharkey Y., Nature, 371:336, 1994) by injecting to the anaesthetized animal endothelin-1 (120 pml), for a duration of 3 minutes with a microcannula placed stereotactically in the pyriform cortex at the level of the middle cerebral artery (MCA).
# The ischaemic area thus produced was checked after 3 days with transcardiac perfusion of paraformaldehyde solution (4% in PBS).
# After removing the brain and placing it in a fixator containing 10% saccharose, cryostat sections were fixed in methyl violet and examined under the optical microscope.
# The administration of propionyl L-carnitine (50 mg/kg), acetyl L-carnitine (50 mg/kg) and of a solution of Ginkgo biloba (10 mg/kg), or these compounds in combination, was performed intravenously 5 minutes following injection of endothelin-1.
# The volume of the infarcted area was calculated according to the method described by Park (Park C., Anns. Neurol., 20:150, 1989).
# [5] = tested on: collagen-induced platelet aggregation; test: Platelet aggregation tests; format: cell-based, human (healthy volunteers); conditions: collagen 2.5 μg/ml, 10 minutes' incubation; for ED50 (platelet aggregation): human blood
# Description: In these tests, blood samples were taken from healthy volunteers with a platelet content of at least 300,000/mm^3. The method described by Born (Born J. V. R. J. Physiol., 26:25 1963) was used to induce platelet aggregation.
# Platelet aggregation was induced by collagen (2.5 μg/ml) and measured both at the beginning and after 10 minutes' incubation with propionyl L-carnitine, acetyl L-carnitine, Ginkgo biloba extract or with these compounds in various combinations.
# [6] = tested on: pheochromocytoma cells (PC-12); test: Tests of H2O2 toxicity on pheochromocytoma cells (PC-12); format: cell-based; conditions: 10^−8 M; PC-12, H2O2 30 minutes, 24 hours of observation; H2O2 alone approximately 38%
# Description: In these tests, a pheochromocytoma cell (PC-12) culture was used containing 3×10^5 M cells/ml which was submitted for 30 minutes to 0.1 g mM H2O2.
SMILES,Rats not protected [1],Rats protected [1],Rats weakly protected [1],% mortality 1 h after PAF injection [2],% reduction of oedema [3] [%],magnitude of ischaemia (volume mm^3) due to MCA occlusion [4] [mm^3],reduction of platelet aggregation (in words) [5],ED50 (platelet aggregation) [5] [µg],survival of the cells [6] [%]
C[N+](C)(C)C[C@H](O)CC(=O)[O-] [L-carnitine],3,0,1,90/100,10,,,,
"CC(=O)O[C@H](CC(=O)[O-])C[N+](C)(C)C [Acetyl L-carnitine, acetyl L-carnitine]",3,1,3,80/100,15,21.6 ± 1.8,only to a slight extent,26.4 ± 0.34,55
"CCC(=O)O[C@H](CC(=O)[O-])C[N+](C)(C)C [Propionyl L-carnitine, propionyl L-carnitine]",4,2,3,80/100,35,32.6 ± 2.4,only to a slight extent,30.5 ± 0.41,45
